In patent US5589486A, “N-hydroxyalkyl-substituted 1,2,3,6-tetrahydro-pyridine and piperidine derivatives” (Richter Gedeon Vegyeszeti Gyar Rt., priority 1991, dated 1996):
Read-outs that look alike come from different tables or passages of the source.

Experiments:
[1] = tested on: hypoxia; test: Antihypoxic effect, cytotoxic and hypobaric hypoxia tests taken together; type: in vivo, mice; spontaneously hypertensive (SH) rats; conditions: comparison of effects between tests, in words
Method: (§1) Male CFLP mice (from the Hungarian stock LATI) weighing 24-26 g each and spontaneously hypertensive (SH) male rats weighing 160-180 g each, respectively were used in these investigations. The compounds to be tested were orally administered in a volume of 10 ml/kg one hour prior to starting the experiment.
After a 1-hour pretreatment, the animals were intravenously injected with 5 mg/kg of potassium cyanide. Survival time was measured as an interval lasting from the administration of potassium cyanide to the last respiratory movement. In the groups consisting of 10 animals each treated with the compounds, the animals having a survival time longer by 30% than the average survival time of the placebo-treated group were considered to be protected. The ED50 values (i.e. the doses being effective in 50% of the animals) were calculated from the percentage of the surviving animals by using probit analysis.
After a 16-hour starving and 1-hour pretreatment period, the animals were placed in a desiccator of 6 liters volume, where the pressure was decreased to 170 mmHg within 20 seconds. The survival time was registered from this time point up to the last respiratory movement of the animals. […] The ED50 values were calculated from the percentage of the animals protected by using probit analysis. […]

[2] = Acute toxicity study in mice; set-up: species or system mice (OF-1, either sex); conditions: mouse, in vivo, po, maximal dose 1000 mg/kg
Method: OF-1 mice of either sex weighing 19-21 g were used. The test compound was administered through a catheter inserted into the stomach. A series of solutions was prepared, the concentrations were chosen to give a constant dosage volume of 0.1 ml/10 g. The observation time after the treatment was 72 hours. The LD50 value was calculated according to Litchfield and Wilcoxon from six dose responses (maximal dose 1000 mg/kg p.o., n=10).

[3] = tested on: hypobaric hypoxia in SH rats; test: Hypobaric hypoxia test (170 mmHg, survival time); type: in vivo, spontaneously hypertensive (SH) male rats; conditions: in words
Method: as §1
After a 16-hour starving and 1-hour pretreatment period, the animals were placed in a desiccator of 6 liters volume, where the pressure was decreased to 170 mmHg within 20 seconds. The survival time was registered from this time point up to the last respiratory movement of the animals. Animals having a survival time longer by 30% than the average survival time of the control group were considered to be protected. The ED50 values were calculated from the percentage of the animals protected by using probit analysis.
Various forms of hypoxia were used for investigating the compounds. The functional disorganization and destruction of cells and death, respectively in otherwise healthy mice are caused by a decrease in the oxygen-saturation of haemoglobin in the hypobaric hypoxia and the inhibition of the mitochondrial respiratory enzyme in the cytotoxic hypoxia. Spontaneously hypertensive (SH) rats are more sensitive against hypoxic conditions than normotensive animals; similarly, patients suffering from hypertension have a less chance of survival after hypoxic injuries.

[4] = tested on: cytotoxic hypoxia in mice; test: Cytotoxic hypoxia test (potassium cyanide i.v., survival time); type: in vivo, mice (male CFLP); conditions: in words
[5] = 72 h observation, Litchfield and Wilcoxon, read-out: LD50

With `OC(CN1CC=C(c2ccccc2)CC1)c1ccc(Cc2ccc(Cl)cc2)cc1` (stereo not shown) [A, 1-[4-(4-Chlorobenzyl)phenyl]-2-(4-phenyl-1,2,3,6-tetrahydro-1-pyridyl)ethanol] the “antihypoxic effect in the various tests of hypoxia” value [1] was “its effects are the same in the various tests of hypoxia” and the LD50 at 72 h [2, 5] was > 1000 mg/kg.

For `OC(CCN1CCC(c2ccccc2)CC1)c1ccc(Cc2ccc(Cl)cc2)cc1` (stereo not shown) [B, 1-[4-(4-chlorobenzyl)phenyl]-3-(4-phenyl-1-piperidyl)propanol], the LD50 at 72 h [2] was 697 mg/kg.

With `OC(CCN1CC=C(c2ccc(Cl)cc2)CC1)c1ccc(Cl)cc1Cl` (stereo not shown) [E, 3-[4-(4-Chlorophenyl)-1,2,3,6-tetrahydro-1-pyridyl]-1-(2,4-dichlorophenyl)propanol] the LD50 at 72 h [2, 5] was > 1000 mg/kg.

With `NC(=O)CN1CCCC1=O` [Piracetam, 2-oxo-1-pyrrolidinylacetic acid amide, reference compound] the “antihypoxic effect in the various tests of hypoxia” value [1] was “exerts its effect in the same two tests”.

In the case of `CC[C@]12CCCN3CCc4c(n(c5ccccc45)[C@@](O)(C(=O)OC)C1)[C@@H]32` [Vincamine, (+)-14β-hydroxy-14α-methoxycarbonyl-14,15-dihydroeburnamenine], the “action in hypobaric hypoxia” value [3] is reported as “prominent tolerance-enhancing action in hypobaric hypoxia” and the “antihypoxic effect in cytotoxic hypoxia” value [4] is reported as “most pronounced in cytotoxic hypoxia”.
